Assay results as given in patent US9688651B2, “Geranyl geranyl acetone analogs and uses thereof” (NYKEN Holding B.V., priority 2012, dated 2017).
Entries after “also recorded” stand apart in the source; their conditions may differ.

Tests used:
[1] = tested on: MCF-7 breast cancer cells; test: MCF-7 cell death, ratio death/living cells (trypan blue); type: cell-based, human; set-up: key to Cell Death MCF-7 cancer cells Death/living 100 μM: 0 = no dead cells; + = P < 0.05; ++ = P < 0.01; +++ = P < 0.001; details: for Cell Death MCF-7 cancer cells Death/living 100 μM: 16-20 hours, trypan blue; for cell death in MCF-7: 10 μM, 16 hours
Experimental: MCF-7 breast cancer cells were cultured in DMEM supplemented with 10% FCS. […] Ratio death and living cells was determined by using trypan blue staining of death cells. The cell pellets were lysed in RIPA buffer and used for Western blot analysis.
Since we observed that some compounds aggravate tachypacing-induced contractile dysfunction, we next investigated if these compounds can induce programmed cell death in a human breast cancer cell-line MCF-7. […] In total 28 compounds were tested for cell death. […] GGA was used as a control as well as non-treated MCF-7 cells. […] The findings indicate that GGA-like compounds which aggravate heart failure can induce programmed cell death in MCF-7 breast cancer cell-line.

HSP70 [2] = test: HSP70 Western blot in MCF-7 cells; type: cell-based, human; set-up: key: + = P < 0.05; ++ = P < 0.01; +++ = P < 0.001; details: MCF-7 lysate, 16-20 hours
Experimental: (§1) MCF-7 breast cancer cells were cultured in DMEM supplemented with 10% FCS. Test compounds were added to the medium in a final concentration of […] for 16-20 hours. Ratio death and living cells was determined by using trypan blue staining of death cells. The cell pellets were lysed in RIPA buffer and used for Western blot analysis.
(§2) Western-blot analysis was performed as described previously^3, 10. Equal amount of protein in SDS-PAGE sample buffer was sonicated before separation on 10% PAA-SDS gels. After transfer to nitrocellulose membranes (Stratagene, The Netherlands), membranes were incubated with primary antibodies against HSP25 (Stressgen, The Netherlands, SPA-801, 1:1000), HSP27 (Stressgen, SPA-800, 1:1000), HSP70 (Stressgen, SPA-810, 1:1000), GAPDH (Affinity Reagents, The Netherlands) or PARP (Santa Cruz, The Netherlands, sc-7150, 1:500). Horseradish peroxidase-conjugated anti-mouse or anti-rabbit (Santa-Cruz Biotechnology, The Netherlands) was used as secondary antibody. Signals were detected by the ECL-detection method (Amersham, The Netherlands) and quantified by densitometry using GeneTools software from Syngene (The Netherlands).

HSP70 [3] = test: HSP70 protein boosting in HL-1 cardiomyocytes after mild heat shock (Western blot); type: cell-based, mouse; set-up: key to HSP boosting HL-1 cardiomyocytes Protein HSP70: 0 = no induction HSP levels; + = 2-10-fold induction; ++ = 10-30-fold induction; +++ = > 30-fold induction; details: mild heat shock 44°C 10 min, then compound 10 μM for 6 hours; Western blot
Experimental: HL-1 atrial myocytes, a cell line derived from adult mouse atria were obtained from Dr. William Claycomb (Louisiana State University, New Orleans, La., USA). The myocytes were maintained in Complete Claycomb Medium (JRH, UK) supplemented with 100 μM norepinephrine stock (consisting of 10 mM norepinephrine (Sigma, The Netherlands) dissolved in 0.3 mM L-ascorbic acid (Sigma)), 4 mM L-glutamine (Gibco, The Netherlands) and 10% FBS (Sigma). The myocytes were cultured in flasks coated with 0.02% gelatin (Sigma), in a 5% CO2 atmosphere at 37° C.
HL-1 cardiomyocytes were subjected to a mild heat shock of 44° C. for 10 minutes. After a recovery of 10 minutes (37 degrees 5% CO2), compounds were added in a final concentration of 10 μM (dissolved in DMSO, final concentration 0.1%). To control myocytes, 0.1% DMSO was added. After six hours the cells were lysed in RIPA buffer and used for Western blotting as described previously.^3, 10
as §2
Compounds were also screened for HSP70 boosting effects. Hereto, HL-1 cardiomyocytes were first subjected to a mild heat shock which activates the Heat Shock Factor. After the mild heat shock, compound (10 μM) was added to the medium of HL-1 cardiomyocytes for 6 hours, followed by determination of the HSP70 amount.

PARP = PARP cleavage in MCF-7 cells (Western blot); type: cell-based, human; set-up: key to Cell Death MCF-7 cancer cells PARP: 0 = no dead cells; + = P < 0.05; ++ = P < 0.01; +++ = P < 0.001; details: for Cell Death MCF-7 cancer cells PARP: MCF-7 lysate, Western blot, 16-20 hours; for PARP cleavage, indicative of pro-apoptotic caspase activation: MCF-7, 10 μM, 16 hours
Experimental: as §1, §2
Since we observed that some compounds aggravate tachypacing-induced contractile dysfunction, we next investigated if these compounds can induce programmed cell death in a human breast cancer cell-line MCF-7. Hereto, MCF-7 cells were incubated for 16 hours with 10 μM of a test compound after which the number of death and living cells was determined. In total 28 compounds were tested for cell death. […] GGA was used as a control as well as non-treated MCF-7 cells. […] The findings indicate that GGA-like compounds which aggravate heart failure can induce programmed cell death in MCF-7 breast cancer cell-line.

HSP27 = HSP27 Western blot in MCF-7 cells; type: cell-based, human; set-up: key: + = P < 0.05; ++ = P < 0.01; +++ = P < 0.001; details: MCF-7 lysate, 16-20 hours
Experimental: as §1, §2

| SMILES | Cell Death MCF-7 cancer cells Death/living 100 μM [1] | Cell Death MCF-7 cancer cells HSP 70 (HSP70 [2]) | HSP boosting HL-1 cardiomyocytes Protein HSP70 (HSP70 [3]) | Cell Death MCF-7 cancer cells PARP (PARP) | Cell Death MCF-7 cancer cells HSP 27 (HSP27) | cell death in MCF-7 [1] | PARP cleavage, indicative of pro-apoptotic caspase activation (PARP) |
| --- | --- | --- | --- | --- | --- | --- | --- |
| CCOC(=O)CC(C(=O)CC/C=C(\C)CCC=C(C)C)C(=O)OCC (centres unmarked) [Compound 89] | 0 | 0 | + (+ = 2-10-fold induction) | 0 | 0 | – | – |
| CCOC(=O)C(C(=O)CC/C=C(\C)CCC=C(C)C)C(C)C(=O)O (centres unmarked) [Compound 82] | – | – | 0 | – | – | – | – |
| CCOC(=O)CC(=O)NC/C=C(\C)CCC=C(C)C [Compound 98] | 0 | 0 | 0 | 0 | ++ (++ = P < 0.01) | – | – |
| CC(C)=CCC/C(C)=C/CCc1cc(C)n(CCC#N)n1 [Compound 34] | – | – | 0 | – | – | – | – |
| CCCC(=O)NC/C=C(\C)CCC=C(C)C [Compound 91] | – | – | + (+ = 2-10-fold induction) | – | – | – | – |
| CCOC(=O)C(=O)NC/C=C(\C)CCC=C(C)C [Compound 97] | – | – | 0 | – | – | – | – |
| CCOC(=O)C(=Cc1ccccc1)C(=O)CCC=C(C)CCC=C(C)C (mixture of isomers) [Compound 84] | – | – | + (+ = 2-10-fold induction) | – | – | – | – |
| CC(C)=CCC/C(C)=C/CCc1cc(C)n(CCO)n1 [Compound 35] | – | – | 0 | – | – | – | – |
| CC(C)=CCC/C(C)=C/CCc1cc(C)nn1-c1ccc(F)cc1 [Compound 39] | 0 | 0 | 0 | 0 | + (+ = P < 0.05) | – | – |
| CC(C)=CCC/C(C)=C/CNC(=O)c1ccccc1O [Compound 101] | ++ (++ = P < 0.01) | – | 0 | ++ (++ = P < 0.01) | 0 | significant increase in cell death; also recorded: induce cell death | induced PARP cleavage |
| CCCC(=O)C(CC)C(=O)N(C/C=C(\C)CCC=C(C)C)C(=O)CCC (centres unmarked) [Compound 128] | – | – | 0 | – | – | – | – |
| CCOC(=O)C(CC(=O)O)C(=O)CC/C=C(\C)CCC=C(C)C (centres unmarked) [Compound 78] | 0 | 0 | 0 | + (+ = P < 0.05) | ++ (++ = P < 0.01) | – | induced PARP cleavage |
| CC(C)=CCC/C(C)=C/CNC(=O)Nc1cccc(F)c1 [Compound 45] | ++ (++ = P < 0.01) | – | 0 | ++ (++ = P < 0.01) | 0 | significant increase in cell death; also recorded: induce cell death | induced PARP cleavage |
| CC(C)=CCC/C(C)=C/CCc1cc(O)nn1C [Compound 64] | – | – | 0 | – | – | – | – |
| CCOC(=O)C(C/C=C(\C)CCC=C(C)C)C(C)=O (centres unmarked) [Compound 81] | – | – | 0 | – | – | – | – |
| CC(=O)NC/C=C(\C)CCC=C(C)C [Compound 43] | – | – | 0 | – | – | – | – |
| CC(C)=CCC/C(C)=C/CNC(=O)CS(C)(=O)=O [Compound 56] | 0 | 0 | 0 | 0 | 0 | – | – |
| CCNC(=O)NC/C=C(\C)CCC=C(C)C [Compound 44] | – | – | 0 | – | – | – | – |
| CCCC(C(=O)CC/C=C(\C)CCC=C(C)C)C(=O)OCC (centres unmarked) [Compound 70] | 0 | ++ (++ = P < 0.01) | 0 | 0 | +++ (+++ = P < 0.001) | – | – |
| CC(C)=CCC/C(C)=C/CCc1cc(C)nn1-c1ccccc1F [Compound 40] | – | – | 0 | – | – | – | – |
| CCCCCC(C(=O)CC/C=C(\C)CCC=C(C)C)C(=O)OCC (centres unmarked) [Compound 24] | – | – | 0 | – | – | – | – |
| CCOC(=O)C(C)C(=O)CC/C=C(\C)CCC=C(C)C (centres unmarked) [Compound 22] | – | – | 0 | – | – | – | – |
| CC(C)=CCC/C(C)=C/CCc1cc(C)nn1-c1ccc(C#N)cc1 [Compound 41] | + (+ = P < 0.05) | 0 | 0 | + (+ = P < 0.05) | + (+ = P < 0.05) | significant increase in cell death; also recorded: induce cell death | induced PARP cleavage |
| CCC(=O)N(C/C=C(\C)CCC=C(C)C)C(=O)CC [Compound 103] | 0 | 0 | 0 | 0 | 0 | – | – |
| CCCC(=O)N(C/C=C(\C)CCC=C(C)C)C(=O)CCC [Compound 127] | 0 | 0 | 0 | 0 | – | – | – |
| CC(C)=CCC/C(C)=C/CNS(=O)(=O)c1ccc(C)cc1 [Compound 53] | – | – | + (+ = 2-10-fold induction) | – | – | – | – |
| CCOC(=O)CC(=O)CC/C=C(\C)CCC=C(C)C [Compound 21, (E)-Ethyl 7,11-dimethyl-3-oxododeca-6,10-dienoate] | – | – | 0 | – | – | – | – |
| CC(C)=CCC/C(C)=C/CCc1cc(C)n(C)n1 [Compound 33] | – | – | + (+ = 2-10-fold induction) | – | – | – | – |
| CC(C)=CCC/C(C)=C/Cc1c(O)c2ccccc2oc1=O [Compound 66] | 0 | ++ (++ = P < 0.01) | 0 | + (+ = P < 0.05) | + (+ = P < 0.05) | – | induced PARP cleavage |
| CC(C)=CCC/C(C)=C/CCc1cc(O)nn1Cc1ccccc1 [Compound 65] | ++ (++ = P < 0.01) | ++ (++ = P < 0.01) | 0 | ++ (++ = P < 0.01) | +++ (+++ = P < 0.001) | significant increase in cell death; also recorded: induce cell death | induced PARP cleavage |
